{"source": "patent EP0359454B1", "about": "“CC-1065 analogs having two CPI subunits” (PHARMACIA & UPJOHN COMPANY, priority 1988, dated 1990)", "key": {"[1]": {"tested_on": "L-1210 Leukemia", "experiment": "L-1210 leukemia in vivo, IV drug vs IP tumor, dosed on day 1", "parameters": "species or system Male BDF1 mice", "conditions": "IV drug vs IP tumor, dosed on day 1; for Best T/C: T/C = median survival treated/control x 100, each value at the dose (1-600 µg/kg); for cures: animals surviving 30 days are considered cured, at the dose (µg/kg)", "from_the_text": "(§1) Table 3 presents data comparing [S-(R*,R*)]-6,6′-[carbonylbis(imino-1H-indole-5,2-dicarbonyl)]bis[8-chloromethyl)-3,6,7,8-tetrahydro-1-methyl-benzo[1,2-b:4,3-b′]dipyrrol-4-ol (Compound 1) with (7bR)-N-[2-[(4,5,8,8a-tetrahydro-7-methyl-4-oxocyclopropa-[C]pyrrolo[3,2-e]indol-2(1H)0yl)carbonyl]-1H-indol-5-yl]-2-benzofurancarboxamide (U-73,975) in the other murine systems where the compounds have been run jointly.\nThe results set forth in Tables 1 and 4 were obtained using standard well known procedures (In Vivo Cancer, Models, NIH Publication No. 84-2635, 1984).\nT/C refers to median life span of treated mice divided by median life span of control mice times 100."}, "[2]": {"tested_on": "L1210 leukemia cells", "experiment": "In vitro L1210 cell growth inhibition", "assay_type": "cell-based, murine", "conditions": "Mus musculus, concentration of drug which inhibits cell growth 50%, read-out: ID50 (the source's name)", "from_the_text": "as §1"}}, "data": [{"smiles": "Cc1c[nH]c2c(O)cc3c(c12)[C@H](CCl)CN3C(=O)c1cc2cc(NC(=O)c3ccc(C(=O)Nc4ccc5[nH]c(C(=O)N6C[C@@H](CCl)c7c6cc(O)c6[nH]cc(C)c76)cc5c4)o3)ccc2[nH]1", "note": "[Compound 6, [S-(R*,R*]-N,N′-bis[2-[[1-(chloromethyl)-1,6-dihydro-5-hydroxy-8-methylbenzo[1,2-b:4,3-b′]dipyrrol-3(2H)-yl]carbonyl]-1H-indol-5-yl]-2,5-furandicarboxamide]", "values": [{"measurement": "Best T/C", "setting": "[1]", "result": 178}, {"measurement": "cures", "setting": "[1]", "result": 1}, {"measurement": "IC50", "setting": "[2]", "result": 0.012, "unit": "ng/mL"}]}, {"smiles": "Cc1c[nH]c2c(O)cc3c(c12)[C@H](CCl)CN3C(=O)c1cc2cc(NC(=O)c3ccc4[nH]c(C(=O)N5C[C@@H](CCl)c6c5cc(O)c5[nH]cc(C)c65)cc4c3)ccc2[nH]1", "note": "[Compound 12, [S-(R*,R*)]-2-[[1-(chloromethyl)-1,6-dihydro-5-hydroxy-8-methylbenzo[1,2-b:4,3-b′]dipyrrol-3(2H)-yl]carbonyl]-N-[3-[[1-(chloromethyl)-1,6-dihydro-5-hydroxy-8-methylbenzo[1,2-b:4,3-b′]dipyrrol-3(2H)-yl]carbonyl]-1H-indol-6-yl]-1H-indole-5-carboxamide]", "values": [{"measurement": "Best T/C", "setting": "[1]", "result": 181}]}, {"smiles": "Cc1c[nH]c2c(O)cc3c(c12)[C@H](CCl)CN3C(=O)c1ccc(C(=O)N2C[C@@H](CCl)c3c2cc(O)c2[nH]cc(C)c32)o1", "note": "[Compound 5, [S-(R*,R*)]-6,6′-(2,5-furandiyldicarbonyl)bis[8-(chloromethyl)-3,6,7,8-tertrahydro-1-methyl-benzo[1,2-b:4,3′b′]dipyrrol-4-ol]", "values": [{"measurement": "Best T/C", "setting": "[1]", "result": 156}, {"measurement": "IC50", "setting": "[2]", "result": 0.01, "unit": "ng/mL"}]}, {"smiles": "Cc1c[nH]c2c(O)cc3c(c12)[C@H](CCl)CN3C(=O)c1ccc2[nH]c(C(=O)Nc3ccc4[nH]c(C(=O)N5C[C@@H](CCl)c6c5cc(O)c5[nH]cc(C)c65)cc4c3)cc2c1", "note": "[Compound 13, [S-(R*,R*)]-5-[[1-(chloromethyl)-1,6-dihydro-5-hydroxy-8-methylbenzo[1,2-b:4,3-b′]dipyrrol-3(2H)-yl]-carbonyl)-N-[2-[[1-(chloromethyl)-1,6-dihydro-5-hydroxy-8-methylbenzo[1,2-b:4,3-b′]dipyrrol-3(2H)-yl]carbonyl)-1H-indol-5-yl]-1H-indole-2-carboxamide]", "values": [{"measurement": "Best T/C", "setting": "[1]", "result": 188}]}, {"smiles": "Cc1c[nH]c2c(O)cc3c(c12)[C@H](CCl)CN3C(=O)c1ccc(C(=O)N2C[C@@H](CCl)c3c2cc(O)c2[nH]cc(C)c32)[nH]1", "note": "[Compound 4, [S-(R*,R*)]-6,6′-(1H-pyrrole-2,5-diyldicarbonyl)bis[8-(chloromethyl)-3,6,7,8-tertrahydro-1-methyl-benzo[1,2-b:4,3-b′-]dipyrrol-4-ol]", "values": [{"measurement": "Best T/C", "setting": "[1]", "result": 156}, {"measurement": "IC50", "setting": "[2]", "result": 0.004, "unit": "ng/mL"}]}, {"smiles": "Cc1c[nH]c2c(O)cc3c(c12)[C@H](CCl)CN3C(=O)c1cc2cc(NC(=O)C(=O)Nc3ccc4[nH]c(C(=O)N5C[C@H](CCl)c6c5cc(O)c5[nH]cc(C)c65)cc4c3)ccc2[nH]1", "note": "[Compound 3, (R*,S*)-N,N′-bis[2-[[1-(chloromethyl)-1,6-dihydro-5-hydroxy-8-methylbenzo[1,2-b:4,3-b′]dipyrrol-3(2H)-yl]carbonyl]-1H-indol-5-yl]-ethanediamide]", "values": [{"measurement": "Best T/C", "setting": "[1]", "result": 106}, {"measurement": "IC50", "setting": "[2]", "result": 0.009, "unit": "ng/mL"}]}, {"smiles": "Cc1c[nH]c2c(O)cc3c(c12)[C@H](CCl)CN3C(=O)c1cc2cc(NC(=O)c3ccc4[nH]c(C(=O)Nc5ccc6[nH]c(C(=O)N7C[C@@H](CCl)c8c7cc(O)c7[nH]cc(C)c87)cc6c5)cc4c3)ccc2[nH]1", "note": "[Compound 11, [S-(R*,R*)]-N,N′-bis[2-[[1-(chloromethyl)-1,6-dihydro-5-hydroxy-8-methylbenzo[1,2-b:4,3-b′]dipyrrol-3(2H)-yl]carbonyl]-1H-indol-5-yl]-1H-indole-2,5-dicarboxamide]", "values": [{"measurement": "Best T/C", "setting": "[1]", "result": 188}]}, {"smiles": "Cc1c[nH]c2c(O)cc3c(c12)[C@H](CCl)CN3C(=O)c1cc2cc(NC(=O)CC(=O)Nc3ccc4[nH]c(C(=O)N5C[C@@H](CCl)c6c5cc(O)c5[nH]cc(C)c65)cc4c3)ccc2[nH]1", "note": "[Compound 8, [R-(R*,S*)]-N,N′-bis[2[[1-(chloromethyl)-1,6-dihydro-5-hydroxy-8-methylbenzo[1,2-b:4,3-b′]dipyrrol-3(2H)-yl]carbonyl]-1H-indol-5-yl]-propanediamide]", "values": [{"measurement": "Best T/C", "setting": "[1]", "result": 194}, {"measurement": "IC50", "setting": "[2]", "result": 0.006, "unit": "ng/mL"}]}, {"smiles": "CC(=O)Oc1cc2c(c3c(C)c[nH]c13)[C@H](CCl)CN2C(=O)c1cc2cc(NC(=O)Nc3ccc4[nH]c(C(=O)N5C[C@@H](CCl)c6c5cc(OC(C)=O)c5[nH]cc(C)c65)cc4c3)ccc2[nH]1", "note": "[Compound 9, [S-(R*,R*)]-6,6′-[carbonylbis(imino-1H-indole-5,2-diylcarbonyl)bis[8-(chloromethyl)-3,6,7,8-tetrahydro-1-methyl-benzo[1,2-b:4,3-b′]dipyrrol-4-ol diacetate]", "values": [{"measurement": "Best T/C", "setting": "[1]", "result": 165}]}, {"smiles": "Cc1c[nH]c2c(O)cc3c(c12)[C@H](CCl)CN3C(=O)c1ccc2[nH]c(C(=O)N3C[C@@H](CCl)c4c3cc(O)c3[nH]cc(C)c43)cc2c1", "note": "[Compound 10, [S-(R*,R*)]-6,6′-(1H-indole-2,5-diyldicarbonyl)bis[8-(chloromethyl)-3,6,7,8-tetrahydro-1-methyl-benzo[1,2-b:4,3-b′]dipyrrol-4-ol]", "values": [{"measurement": "Best T/C", "setting": "[1]", "result": 213}, {"measurement": "cures", "setting": "[1]", "result": 1}]}, {"smiles": "Cc1c[nH]c2c(O)cc3c(c12)[C@H](CCl)CN3C(=O)c1cc2c3c(ccc2[nH]1)N(C(=O)N1CCc2c1ccc1[nH]c(C(=O)N4C[C@@H](CCl)c5c4cc(O)c4[nH]cc(C)c54)cc21)CC3", "note": "[Compound 16, [S-(R*,R*)]-6,6′-[carbonylbis[(7,8-dihydrobenzo[1,2-b:4,3-b′]dipyrrole-6,2(3H)-diyl)carbonyl]]bis[8-chloromethyl)-3,6,7,8-tetrahydro-1-methyl-benzo[1,2-b:4,3b′]dipyrrol-4-ol]", "values": [{"measurement": "Best T/C", "setting": "[1]", "result": 243}, {"measurement": "cures", "setting": "[1]", "result": "1/6"}, {"measurement": "IC50", "setting": "[2]", "result": 0.002, "unit": "ng/mL"}]}, {"smiles": "Cc1c[nH]c2c(OC(=O)C(C)(C)C)cc3c(c12)[C@H](CCl)CN3C(=O)c1cc2cc(NC(=O)Nc3ccc4[nH]c(C(=O)N5C[C@@H](CCl)c6c5cc(OC(=O)C(C)(C)C)c5[nH]cc(C)c65)cc4c3)ccc2[nH]1", "note": "[Compound 14, [S-(R*,R*)]-carbonylbis[imino-1H-indole-5,2-diylcarbonyl[1-(chloromethyl)-1,6-dihydro-8-methylbenzo[1,2-b:4,3-b′]dipyrrole-3,5(2H)-diyl]]ester, 2,2-dimethylpropanoic acid]", "values": [{"measurement": "Best T/C", "setting": "[1]", "result": 156}]}, {"smiles": "Cc1c[nH]c2c(O)cc3c(c12)[C@H](CCl)CN3C(=O)c1cc2cc(NC(=O)c3ccc(C(=O)Nc4ccc5[nH]c(C(=O)N6C[C@@H](CCl)c7c6cc(O)c6[nH]cc(C)c76)cc5c4)[nH]3)ccc2[nH]1", "note": "[Compound 7, [S-(R*,R*)]-N,N′-bis[2[[1-(chloromethyl)-1,6-dihydro-5-hydroxy-8-methylbenzo[1,2-b:4,3-b′]dipyrrol-3(2H)-yl]carbonyl]-1H-indol-5-yl]-1H-pyrrole-2,5-dicarboxamide]", "values": [{"measurement": "Best T/C", "setting": "[1]", "result": 156}, {"measurement": "IC50", "setting": "[2]", "result": 0.004, "unit": "ng/mL"}]}, {"smiles": "CCCCCCCCCC(=O)Oc1cc2c(c3c(C)c[nH]c13)[C@H](CCl)CN2C(=O)c1cc2cc(NC(=O)Nc3ccc4[nH]c(C(=O)N5C[C@@H](CCl)c6c5cc(OC(=O)CCCCCCCCC)c5[nH]cc(C)c65)cc4c3)ccc2[nH]1", "note": "[Compound 15, [S-(R*,R*)]-carbonylbis[imino-1H-indole-5,2-diylcarbonyl[1-(chloromethyl)-1,6-dihydro-8-methylbenzo[1,2-b:4,3-b′]dipyrrole-3,5(2H)-diyl]]ester, decanoic acid]", "values": [{"measurement": "Best T/C", "setting": "[1]", "result": 243}, {"measurement": "cures", "setting": "[1]", "result": 1}, {"measurement": "IC50", "setting": "[2]", "result": 0.001, "unit": "ng/mL"}]}]}
